# System: VEGF-dependent phospho ERK1/2 (T202/Y204) in HUVEC cells
# Assay: VEGF-Dependent Erk Phosphorylation in HUVEC cells
# Type: cell-based
# Conditions: Homo sapiens, 1.5 h compound exposure, VEGF165 150 ng/ml, Western blot densitometry, read-out: P_ERK_IC50_UM
# Excerpt: HUVEC cells are purchased from Cambrex Bio Science Walkersville, Inc and cultured according to the vendor's instructions. The full-length coding sequence of VEGF165 is cloned using the Gateway Cloning Technology (Invitrogen) for baculovirus expression Sf9 cells. VEGF165 is purified from conditioned media using a NaCl gradient elution from a HiTrap heparin column (GE Healthcare Life Sciences) followed by an imidazole gradient elution from a HiTrap chelating column (GE Healthcare Life Sciences), then buffer stored in PBS supplemented with 0.1% BSA and filter sterilized
# Cells are seeded at 8000 cells/well of a 96 wells plate and grown for 48 hours. Cells are then grown overnight in serum and growth factor-free medium and exposed for 1.5 h to compounds dilutions. Following a 15 min incubation in medium, VEGF165 (150 ng/ml) cells are lysed in ice-cold lysis buffer (50 mM HEPES, pH 7.4, 150 mM NaCl, 1.5 mM MgCl2, 1% Triton X-100, 10% glycerol) containing 1 mM 4-(2 aminoethyl)benzenesulfonyl fluoride hydrochloride, 200 μM sodium orthovanadate, 1 mM sodium fluoride, 10 μg/mL leupeptin, 10 μg/mL aprotinin, 1 μg/mL pepstatin and 50 μg/mL Na-p-tosyl-L-lysine chloromethyl ketone hydrochloride and processed as Western blots to detect anti-phospho ERK1/2 (T202/Y204)(Cell Signaling Technologies). […]
row,SMILES,IC50 [nM]
1,O=C1CCCN1Cc1ccc(-c2cc3nccc(Oc4ccc5oc(NC6CC6)nc5c4)c3s2)nc1 [Compound 47],120

# Target: T1, VEGFR2 (KDR) (Homo sapiens, UniProt P35968)
# T1 construct: made in house; host or cells: Sf9 cells (Spodoptera frugiperda), recombinant baculovirus
# Assay: In Vitro Receptor Tyrosine Kinase Assay (VEGF receptor KDR), DELFIA
# Type: biochemical
# Conditions: recombinant GST-VEGFR2 806-1356, enzyme 5 nM, ATP 0.6 uM (2x Km), poly(Glu4,Tyr) substrate; read-out: VEGFR_IC50_UM
# Excerpt: This test measures the ability of compounds to inhibit the enzymatic activity of recombinant human VEGF receptor enzymatic activity.
# A 1.6-kb cDNA corresponding to the catalytic domain of VEGFR2 (KDR) (Genbank accession number AF035121 amino acid 806 to 1356) is cloned into the Pst I site of the pDEST20 Gateway vector (Invitrogen) for the production of a GST-tagged version of that enzyme. This construct is used to generate recombinant baculovirus using the Bac-to-Bac™ system according to the manufacturer's instructions (Invitrogen).
# The GST-VEGFR2806-1356 protein is expressed in Sf9 cells (Spodoptera frugiperda) upon infection with recombinant baculovirus construct. Briefly, Sf9 cells grown in suspension and maintained in serum-free medium (Sf900 II supplemented with gentamycin) at a cell density of about 2×10^6 cells/ml are infected with the above-mentioned viruses at a multiplicity of infection (MOI) of 0.1 during 72 hours at 27° C. with agitation at 120 rpm on a rotary shaker. Infected cells are harvested by centrifugation at 398 g for 15 min. Cell pellets are frozen at −80° C. until purification is performed.
# All steps described in cell extraction and purification are performed at 4° C. Frozen Sf9 cell pellets infected with the GST-VEGFR2806-1356 recombinant baculovirus are thawed and gently resuspended in Buffer A (PBS pH 7.3 supplemented with 1 μg/ml pepstatin, 2 μg/ml Aprotinin and leupeptin, 50 μg/ml PMSF, 50 μg/ml TLCK and 10 μM E64 and 0.5 mM DTT) using 3 ml of buffer per gram of cells. Suspension is Dounce homogenized and 1% Triton X-100 is added to the homogenate after which it is centrifuged at 22500 g, 30 min., 4° C. The supernatant (cell extract) is used as starting material for purification of GST-VEGFR2806-1356.
# The supernatant is loaded onto a GST-agarose column (Sigma) equilibrated with PBS pH 7.3. Following a four column volume (CV) wash with PBS pH 7.3+1% Triton X-100 and 4 CV wash with buffer B (50 mM Tris pH 8.0, 20% glycerol and 100 mM NaCl), bound proteins are step eluted with 5 CV of buffer B supplemented with 5 mM DTT and 15 mM glutathion. GST-VEGFR2806-1356 enriched fractions from this chromatography step are pooled based on U.V. trace i.e. fractions with high O.D.280. Final GST-VEGFR2806-1356 protein preparations concentrations are about 0.7 mg/ml with purity approximating 70%. Purified GST-VEGFR2806-1356 protein stocks are aliquoted and frozen at −80° C. prior to use in enzymatic assay.
# Inhibition of VEGFR/KDR is measured in a DELFIA™ assay (Perkin Elmer). The substrate poly(Glu4, Tyr) is immobilized onto black high-binding polystyrene 96-well plates. The coated plates are washed and stored at 4° C. During the assay, the enzyme is pre-incubated with inhibitor and Mg-ATP on ice in polypropylene 96-well plates for 4 minutes, and then transferred to the coated plates. The subsequent kinase reaction takes place at 30° C. for 10-30 minutes. ATP concentrations in the assay are 0.6 uM for VEGFR/KDR (2× the Km). Enzyme concentration is 5 nM. After incubation, the kinase reactions are quenched with EDTA and the plates are washed. Phosphorylated product is detected by incubation with Europium-labeled anti-phosphotyrosine MoAb. After washing the plates, bound MoAb is detected by time-resolved fluorescence in a Gemini SpectraMax reader (Molecular Devices). Compounds are evaluated over a range of concentrations, and IC50 values (concentration of compounds giving 50% inhibition of enzymatic activity) are determined.
# T1 sequence (P35968 806-1356): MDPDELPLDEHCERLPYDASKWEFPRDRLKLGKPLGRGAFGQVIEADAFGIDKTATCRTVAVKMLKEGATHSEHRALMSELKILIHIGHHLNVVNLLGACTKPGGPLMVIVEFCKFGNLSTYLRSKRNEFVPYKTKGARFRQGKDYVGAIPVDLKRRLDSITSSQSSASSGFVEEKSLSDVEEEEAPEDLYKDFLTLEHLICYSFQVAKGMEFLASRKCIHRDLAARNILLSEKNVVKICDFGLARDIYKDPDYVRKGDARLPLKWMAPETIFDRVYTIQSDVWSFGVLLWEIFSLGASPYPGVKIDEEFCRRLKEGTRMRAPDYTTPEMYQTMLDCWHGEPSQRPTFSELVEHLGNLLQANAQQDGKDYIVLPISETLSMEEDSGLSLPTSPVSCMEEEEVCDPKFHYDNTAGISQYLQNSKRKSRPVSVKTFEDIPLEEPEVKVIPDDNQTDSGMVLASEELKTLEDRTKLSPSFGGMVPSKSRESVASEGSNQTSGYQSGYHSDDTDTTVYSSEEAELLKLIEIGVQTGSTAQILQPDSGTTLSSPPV
row,SMILES,IC50 [nM]
1,"CCn1cc(CN(Cc2ccc(-c3cc4nccc(Oc5ccc6oc(Nc7ccc(Cl)cc7)nc6c5)c4s3)nc2)C(C)C)nn1 [Compound 21, N-(4-Chlorophenyl)-5-(2-(5-((((1-ethyl-1H-1,2,3-triazol-4-yl)methyl)(isopropyl)amino)methyl)pyridin-2-yl)thieno[3,2-b]pyridin-7-yloxy)benzo[d]oxazol-2-amine]",8
2,CN(C)[C@H]1CCN(C(=O)c2cc3nccc(Oc4ccc5oc(Nc6ccccc6)nc5c4)c3s2)C1 [Compound 61],19
3,O=C1CCCN1Cc1ccc(-c2cc3nccc(Oc4ccc5oc(Nc6ccc(Cl)c(C(F)(F)F)c6)nc5c4)c3s2)nc1 [Compound 57],18
4,"O=C1CCCN1Cc1ccc(-c2cc3nccc(Oc4ccc5oc(Nc6ccc(Cl)cc6)nc5c4)c3s2)nc1 [Compound 46, 1-((6-(7-(2-(4-Chlorophenylamino)benzo[d]oxazol-5-yloxy)thieno[3,2-b]pyridin-2-yl)pyridin-3-yl)methyl)pyrrolidin-2-one]",5
5,CCNC(=O)N(C)C1CCN(Cc2ccc(-c3cc4nccc(Oc5ccc6oc(Nc7ccc(Cl)cc7)nc6c5)c4s3)nc2)CC1 [Compound 15],7
6,O=C(c1cc2nccc(Oc3ccc4oc(Nc5ccccc5)nc4c3)c2s1)N1CCCCC1 [Compound 59],240
7,COCCN(Cc1ccc(-c2cc3nccc(Oc4ccc5oc(Nc6ccc(Cl)cc6)nc5c4)c3s2)nc1)C(C)=O [Compound 62],4
8,O=C1CCCN1Cc1ccc(-c2cc3nccc(Oc4ccc5nc(Nc6cccc(Cl)c6)oc5c4)c3s2)nc1 [Compound 50],434
9,"CCN(CC)CCNC(=O)c1ccc(NCc2ccc(-c3cc4nccc(Oc5ccc6oc(Nc7ccc(Cl)cc7)nc6c5)c4s3)nc2)cc1 [Compound 16, 4-((6-(7-(2-(4-Chlorophenylamino)benzo[d]oxazol-5-yloxy)thieno[3,2-b]pyridin-2-yl)pyridin-3-yl)methyl)amino-N-(2-(diethylamino)ethyl)benzamide]",16
10,COCCN(Cc1ccc(-c2cc3nccc(Oc4ccc5oc(Nc6ccccc6)nc5c4)c3s2)nc1)C(C)=O [Compound 64],47
11,COc1ccc(Nc2nc3cc(Oc4ccnc5cc(-c6ccc(CN7CCCC7=O)cn6)sc45)ccc3o2)cc1 [Compound 53],3
12,CN(C(=O)CO)C1CCN(Cc2ccc(-c3cc4nccc(Oc5ccc6oc(Nc7ccc(Cl)cc7)nc6c5)c4s3)nc2)CC1 [Compound 14],5
13,Clc1ccc(Nc2nc3cc(Oc4ccnc5cc(-c6ccc(CNc7cc[nH]n7)cn6)sc45)ccc3o2)cc1 [Compound 17],41.3
14,O=C1CCCN1Cc1ccc(-c2cc3nccc(Oc4ccc5oc(Nc6ccc(F)cc6)nc5c4)c3s2)nc1 [Compound 55],14
15,O=C1CCCN1Cc1ccc(-c2cc3nccc(Oc4ccc5oc(Nc6ccccc6Cl)nc5c4)c3s2)nc1 [Compound 54],139
16,COCCN(Cc1ccc(-c2cc3nccc(Oc4ccc5oc(NC6CC6)nc5c4)c3s2)nc1)C(C)=O [Compound 63],1580
17,O=C1CCCN1Cc1ccc(-c2cc3nccc(Oc4ccc5oc(Nc6cccc(F)c6)nc5c4)c3s2)nc1 [Compound 56],29
18,O=C1CCCN1Cc1ccc(-c2cc3nccc(Oc4ccc5oc(Nc6ccc(C(F)(F)F)cc6)nc5c4)c3s2)nc1 [Compound 52],6
19,CC(C)(C)OC(=O)N1CCN(Cc2ccc(-c3cc4nccc(Oc5ccc6oc(Nc7ccc(Cl)cc7)nc6c5)c4s3)nc2)CC1 [Compound 65],232
20,CCNC(=O)NC1CCN(Cc2ccc(-c3cc4nccc(Oc5ccc6oc(Nc7ccc(Cl)cc7)nc6c5)c4s3)nc2)CC1 [Compound 13],7
21,Clc1ccc(Nc2nc3cc(Oc4ccnc5cc(-c6ccc(CNc7cccc(OCCN8CCOCC8)c7)cn6)sc45)ccc3o2)cc1 [Compound 19],12
22,O=C1CCCN1Cc1ccc(-c2cc3nccc(Oc4ccc5oc(Nc6cccc(Cl)c6)nc5c4)c3s2)nc1 [Compound 49],2
23,O=C1CCCN1Cc1ccc(-c2cc3nccc(Oc4ccc5nc(Nc6ccc(Cl)cc6)oc5c4)c3s2)nc1 [Compound 51],278
24,"O=C(CO)NC1CCN(Cc2ccc(-c3cc4nccc(Oc5ccc6oc(Nc7ccc(Cl)cc7)nc6c5)c4s3)nc2)CC1 [Compound 12, N-(1-((6-(7-(2-(4-Chlorophenylamino)benzo[d]oxazol-5-yloxy)thieno[3,2-b]pyridin-2-yl)pyridin-3-yl)methyl)piperidin-4-yl)-2-hydroxyacetamide]",6
25,O=C1CCCN1Cc1ccc(-c2cc3nccc(Oc4ccc5oc(NC6CC6)nc5c4)c3s2)nc1 [Compound 47],1560
26,Clc1ccc(Nc2nc3cc(Oc4ccnc5cc(-c6ccc(CNc7ccc(OCCN8CCOCC8)cc7)cn6)sc45)ccc3o2)cc1 [Compound 18],23
